This is an account of results in patent US7371365B2, “Methods for detecting parenchymal plaques in vivo” (Mayo Foundation for Medical Education and Research, priority 2000, dated 2008).

For data set [1], the system named is β-amyloid plaques. The data set is described as follows: MRI (7 Tesla, T2W/T1W) of post-mortem brain with thioflavin S histologic correlation after IV injection of probe in mice. The data set is classed as in vivo, APP-PS1 transgenic mice. Conditions: for T1 plaque enhancement on T1W images / accelerated T2 relaxation on T2W images: APP-PS1 transgenic mouse, four hours.

The subject of data set [2] is amyloid deposits in AD temporal lobe cortex sections. Put plainly: Labeling of amyloid deposits in vitro in AD temporal lobe cortex sections (film and emulsion autoradiography). The class given is binding, human. Conditions: for specificity of binding for type of amyloid deposit: AD temporal lobe cortex sections in vitro. The protocol: The sections were washed with TBS, pH 7.0 four times and then rinsed briefly with distilled water twice. The sections were allowed to air dry overnight in a box with desiccant at 4° C.
Sections then underwent immunohistochemistry (IH) for amyloid using an anti-Aβ monoclonal mouse antibody (4G8, Senetek). Untreated sections were included as a positive control for antibody staining. After rehydrating with TBS, pH 7.6, the sections were fixed briefly with neutral-buffered, 10% formalin for 3 minutes. The sections were washed with TBS and then blocked with 1.5% normal horse serum in TBS for 30 minutes. The sections were incubated with the anti-Aβ primary antibody at a dilution of 1:1000 in 0.1% BSA/TBS overnight at 4° C. The primary antibody was then visualized using a Vectastain Elite ABC, immunoperoxidase kit with diaminobenzidine (DAB) as a substrate according to the instructions (Vector Laboratories). The sections were allowed to air dry overnight in a box with desiccant at 4° C.
FIGS. 2A-2B are the film autoradiographs. Note the presence of punctate areas of exposed film located predominantly in the regions corresponding to gray matter. This is similar to the distribution of amyloid deposits seen following IH of the tissue sections. It was possible to overlay the two for direct correspondence under the microscope.
In order to definitively correlate the IH with the iodinated peptide by colocalization, the sections were next dipped in an autoradiographic emulsion (Type NTB-3, Kodak). The slides were dipped in emulsion at 43° C. under Safelight illumination in a darkroom. The slides were chilled to solidify the emulsion and then allowed to air dry at room temperature for 3 hours in a light-proof box. The slides were exposed at 4° C. in a light-proof box with desiccant. The slides were developed with Dektol developer (Kodak) and fixed (Kodak) according to the instructions. The sections were dehydrated with successive changes of ethanol and xylene and then coverslipped with a xylene-based mounting media (CMS).

For data set [3] the following is noted: in vivo, iv; cited from earlier work.
Data set [4] concerns parenchymal amyloid deposits. The data set is described as follows: Labeling of amyloid deposits in vivo after i.v. injection in APP, PS1 transgenic mice. The settings on record: 200 μg i.v., four hours, emulsion autoradiography, PS1 transgenic mice 27 weeks of age. An excerpt: These mice develop amyloid deposits and behavioral deficits within 12 weeks of age. Hemizygous transgenic mice (Tg2576) expressing mutant human amyloid precursor protein (APP695) were mated with a second strain of hemizygous transgenic mice (M146L5.1) expressing mutant human presenilin 1 (PS1). Holcomb, L., et al., Nature Med. 4:97-100 (1998). The animals were genotyped for the expression of both transgenes by a dot blot method using a sample of mouse tail DNA. The mice were housed in a virus-free barrier facility under a 12-hour light/dark cycle, with ad lib access to food and water.
parenchymal amyloid deposits, sequence (P05067 672-711 limits assumed): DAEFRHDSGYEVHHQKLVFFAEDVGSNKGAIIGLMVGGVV
After four hours, each animal was perfused with PBS and fixed with neutral-buffered, 10% formalin following an overdose with sodium pentobarbital (75 mg/kg, i.p.). After cryoprotecting in 10% and 30% sucrose in PBS, frozen sections of each brain were cut with a freezing microtome and then processed with anti-Aβ IH and emulsion autoradiography for the presence of radiolabeled amyloid deposits using the same methods described above for the human AD sections.

Data set [5] has as its system BBB. The settings on record: mouse, in vivo. The protocol: PS and Vp Determination in Mice. […] Blood was sampled from the femoral artery at several intervals during the next 15 minutes. Whole blood was sampled directly, using heparinized micro-hematocrit capillary tubes and TCA extracted. The supernatant was separated from the pellet and both were counted in a gamma counter. The radioactivity in the pellet was expressed as a percentage of the total radioactivity found in both the pellet and supernatant. An aliquot of the peptide labeled with ^131I was then injected into the femoral vein 15 seconds prior to sacrifice of the animal to serve as a measure of residual plasma volume (Vp; μl/g). After collection of the final blood sample, the anesthetized animal was sacrificed. […] The permeability coefficient x surface area products (PS; 10^−6 ml/g/s) were then calculated using the Vp as a measure of residual plasma volume based on equations that have been discussed in detail elsewhere (Poduslo and Curran, supra (1996a); Poduslo and Curran, supra (1996b); Wengenack, et al., supra (1997); Poduslo, et al., supra (1998); Poduslo, et al., supra (2000); Poduslo, et al., supra (2001). Statistical evaluations of PS and Vp were performed using ANOVA followed by Bonferroni multiple comparisons.

Data set [6] relates to β-amyloid plaques in human AD brain sections. Put plainly: Labeling of AD amyloid plaques in vitro with putrescine- and gadolinium-labeled Aβ. The class given is binding. Conditions: equal amounts of radioactivity. The source says: Labeling of AD Amyloid Plaques In Vitro with Putrescine- and Gadolinium-Labeled Aβ. […] The slides were dipped in emulsion, exposed, and developed according to the instructions. The sections were dehydrated with successive changes of ethanol and xylene and then coverslipped.

The test system of data set [7] is BBB. The data set is classed as in vivo, Sprague-Dawley rats. Conditions: rat. The protocol: Poduslo, J. F. and Curran, G. L., Proc. Natl. Acad. Sci. USA 89:2218-2222 (1992); Poduslo, J. F. and Curran, G. L., Molec. Brain Res. 23:157-162 (1994); and Poduslo, J. F., et al., Proc. Natl. Acad. Sci. USA 9:5705-5709 (1994). Putrescine modification of synthetic human Aβ1-40 was performed by covalent linkage of the polyamine to carboxylic acid groups using carbodiimide at a pH of 6.7. Poduslo, J. F. and Curran, G. L., J. Neurochem. 66:1599-1609 (1996); and Poduslo, J. F. and Curran, G. L., J. Neurochem.
PS and Vp values were determined in normal adult male Sprague-Dawley rats (400-450 g) obtained from Harlan. […] Blood (200 μl) was sampled from the brachial artery at several intervals during the next 15 minutes.

On to `O=C([O-])CN(CCN(CC(=O)[O-])CC(=O)O)CCN(CC(=O)[O-])CC(=O)O.[Gd+3]` [Gd-DTPA, gadolinium diethylenetriaminepentaacetic acid, reference compound], for which, in data set [1] (IV injection), the “T1 plaque enhancement on T1W images” value is reported as “No evidence of T1 plaque enhancement” and the “accelerated T2 relaxation on T2W images” value is “expected focal areas of T2 acceleration that corresponded to plaques”.

Turning to `NCCCCN` [putrescine, reference compound], the “effect of unbound putrescine on binding of iodinated peptide to amyloid deposits” value in data set [2] (10-fold excess unbound putrescine, 100 pM 125I-Aβ1-40 or 125I-PUT-Aβ1-40) was “no appreciable effect on binding of iodinated peptide”.

Consider “Aβ 1-40: synthetic human amyloid β peptide 1-40, native (unmodified); radioiodinated for the measurements [reference compound]”, for which the “amount of radiolabeled peptide present in PBS-perfused brain” value in data set [3] is on record as 0.03%. In data set [2], the “specificity of binding for type of amyloid deposit” value is recorded as “specific for dense-core, neuritic-type amyloid deposits”. For the same compound, the “labeling of parenchymal amyloid deposits in vivo” value in data set [4] was “did not exhibit labeling of any parenchymal amyloid deposits”.

Take “Gd-Aβ: Aβ (1-40) with DTPA chelating arm at the amino terminus, chelated with gadolinium; Aβ to Gd 1:1”: in data set [1] (IV injection), the “T1 plaque enhancement on T1W images” value was “no significant plaque enhancement” and the “accelerated T2 relaxation on T2W images” value is given as “accelerated T2 relaxation was observed in plaques”. In addition, in data set [5], the “effect of gadolinium labeling of Aβ on the PS value” is “decrease in the PS value in five of the six brain regions, however, this was of non-significant magnitude”. Besides, in data set [6], the “exposure time required for detection of plaque binding (emulsion autoradiography)” value was “nine”.

Consider “PUT Aβ 1-40: synthetic human Aβ1-40 with putrescine covalently linked to carboxylic acid groups using carbodiimide; radioiodinated for the measurements”, for which the “amount of radiolabeled peptide present in PBS-perfused brain” value in data set [3] was 0.35%. The “specificity of binding for type of amyloid deposit” value in data set [2] is given as “specific for dense-core, neuritic-type amyloid deposits”. Besides, the “density of exposed silver grains on amyloid deposits (emulsion autoradiography)” value in data set [2] (equal amounts of radioactivity and exposure time (6 days), versus 125I-Aβ1-40) is listed as “higher density of silver grains”. In addition, in data set [4], the “labeling of parenchymal amyloid deposits in vivo” value was “able to cross the BBB and bind to amyloid deposits in vivo”. In data set [7], the “increase of permeability at the blood brain barrier by putrescine modification” value is on record as “two-fold”.

Take “putrescine-gadolinium-amyloid-β peptide [PUT-Gd-Aβ]”: in data set [1] (APP-PS1 mice, IV injection, T1W MRI, mean ± SEM, n = 15 plaques), the “T1 CNR (contrast-to-noise ratio)” value came out at 7.13 ± 1.03. Further, the “T1 PBR (plaque-to-background voxel intensity ratio)” value in data set [1] (APP-PS1 mice, IV injection, T1W MRI, mean ± SEM, n = 15 plaques, maximum intensity) was determined as 1.24 ± 0.04. In data set [1] (APP-PS1 mice, IV injection, T2W MRI, mean ± SEM, n = 15 plaques), the “T2 CNR (contrast-to-noise ratio)” value is on record as −8.95. For the same compound, in data set [1] (APP-PS1 mice, IV injection, T2W MRI, mean ± SEM, n = 15 plaques, minimum intensity), the “T2 PBR (plaque-to-background voxel intensity ratio)” value came out at 0.29 ± 0.03. For the same compound, in data set [1] (APP-PS1 mice, T1 images), the “fold increase of T1 CNR in injected mice” value is given as 4.2-9.4 fold and the “fold increase of T1 PBR in injected mice” value was found to be 1.2 fold. In data set [1] (APP-PS1 mouse, T1W, interpretation of pixel proportion), the “cortical tissue volume occupied by enhanced plaque” value was “roughly 10%”. Further, the “proportion of pixels within cortical ROI whose intensity exceeded the 4-S.D. threshold” value in data set [1] (APP-PS1 mouse, T1W, mean (±S.D.) across 10 images, 812.5×812.5 μm ROI) was determined as 9.9%. In data set [1] (IV injection), the “T1 plaque enhancement on T1W images” value is “many focal areas of accelerated T1 relaxation visible as bright spots” and the “accelerated T2 relaxation on T2W images” value was “Numerous focal areas of accelerated T2 relaxation”. In addition, the “MRI features in non-transgenic mouse (focal areas of accelerated T1 relaxation)” value in data set [1] (non-transgenic mouse, compared with PBS-injected non-transgenic mouse (no focal T1 areas)) was “yielded the same results”. For the same compound, the “exposure time required for detection of plaque binding (emulsion autoradiography)” value in data set [6] is reported as “one”.
